This assay concerns the target T1, RIPK2 enzyme (Homo sapiens, UniProt O43353).
T1 construct: purchased Carna 09-128
Kind of assay: RIPK2 inhibition (ADP-Glo Kinase Assay). Format: biochemical. Conditions: RIPK2 5 nM, ATP 150 μM, MBP substrate, read-out: RIPK2 IC50. The method, then:
RIPK2 inhibition was measured as follows:
The V9102 ADP-Glo Kinase Assay (including ultrapure ATP, 10 mM) was purchased from Promega. Native swine MBP was used as the substrate for the reaction and was purchased from SignalChem Biotech (catalogue number M42-51N). Assay buffer used for the assay consisted of the following components: MgCl2 (final concentration of 10 mM), Brij-35 (0.01%), DTT (final concentration of 2 mM), BSA (0.05%), EGTA (final concentration of 1 mM), and HEPE (pH 7.5 at final concentration of 50 mM).
Method: In a 384 well plate, 10 nL of test compound was dispensed using Echo550 and mixed with RIPK2 enzyme (final concentration of 5 nM) in assay buffer for 30 minutes at room temperature. […] Then ADP-Glo reagent was added and incubated for 60 min at room temperature. Last, Kinase Detection Reagent was added to the mixture and incubated for 60 min. The resulting luminescent signal was measured with an Envision reader to determine the amount of ADP produced. All plates contained vehicle controls (10 nL DMSO only) as a reference for the high control (0% kinase inhibition), and wells with no RIPK2 enzyme as reference for low control (100% kinase inhibition). Data were analyzed to determine the percent inhibition of ADP production in the presence of test compound using both low and high controls.
T1 sequence (O43353 1-299 limits assumed): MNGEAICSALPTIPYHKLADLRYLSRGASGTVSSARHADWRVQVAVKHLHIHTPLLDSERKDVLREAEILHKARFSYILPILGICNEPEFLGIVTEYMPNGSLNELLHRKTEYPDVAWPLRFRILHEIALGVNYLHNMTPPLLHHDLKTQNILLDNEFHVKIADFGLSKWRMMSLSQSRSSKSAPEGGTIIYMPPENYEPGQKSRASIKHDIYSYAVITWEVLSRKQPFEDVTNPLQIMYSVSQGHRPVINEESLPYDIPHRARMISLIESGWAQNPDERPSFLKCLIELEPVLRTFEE
Broadly, the IC50 is the concentration at which inhibition is half-maximal. As to `CN(C)C1CCN(c2ccc3nccc(Oc4cnc(CC(=O)Nc5cnn(C(C)(C)C)c5)c(F)c4)c3c2)C1` (single isomer, unassigned) [Compound 141, N-(1-(tert-butyl)-1H-pyrazol-4-yl)-2-(5-((6-(3-(dimethylamino)pyrrolidin-1-yl)quinolin-4-yl)oxy)-3-fluoropyridin-2-yl)acetamide], the IC50 worked out at 10.3 nM.

`Cc1cc(CC(=O)Nc2cnn(C(C)(C)C)c2)ccc1Oc1ccnc2ccc(OCC3CCCN3)cc12` (single isomer, unassigned) [Compound 190, N-(1-(tert-butyl)-1H-pyrazol-4-yl)-2-(3-methyl-4-((6-(pyrrolidin-2-ylmethoxy)quinolin-4-yl)oxy)phenyl) acetamide]: the IC50 was less than 2.5 nM.

On to `Cc1cc(CC(=O)Nc2cnn(C(C)(C)C)c2)ccc1Oc1ccnc2ccc(OCC3CCCN3)cc12` (single isomer, unassigned) [Compound 191, N-(1-(tert-butyl)-1H-pyrazol-4-yl)-2-(3-methyl-4-((6-(pyrrolidin-2-ylmethoxy)quinolin-4-yl)oxy)phenyl) acetamide], for which the IC50 was less than 2.5 nM.

Consider `CC(C)(C)n1cc(NC(=O)Cc2ccc(Oc3ccnc4ccc(S(C)(=N)=O)cc34)c(Cl)c2)cn1` (single isomer, unassigned) [Compound 196, N-(1-(tert-butyl)-1H-pyrazol-4-yl)-2-(3-chloro-4-((6-(S-methylsulfonimidoyl)quinolin-4-yl)oxy)phenyl)acetamide], for which the IC50 was less than 2.5 nM.

Take `Cc1cc(CC(=O)Nc2cnn(C(C)(C)C)c2)ccc1Oc1ccnc2ccc(S(=O)(=O)C3CCOC3)cc12` (single isomer, unassigned) [Compound 199, N-(1-(tert-butyl)-1H-pyrazol-4-yl)-2-(3-methyl-4-((6-((tetrahydrofuran-3-yl)sulfonyl)quinolin-4-yl)oxy)phenyl)acetamide]: the IC50 was less than 2.5 nM.

Turning to `Cc1cc(CC(=O)Nc2cnn(C(C)(C)C)c2)ccc1Oc1ccnc2ccc(S(=O)(=O)C3CCOC3)cc12` (single isomer, unassigned) [Compound 200, N-(1-(tert-butyl)-1H-pyrazol-4-yl)-2-(3-methyl-4-((6-((tetrahydrofuran-3-yl)sulfonyl)quinolin-4-yl)oxy)phenyl)acetamide], the IC50 was less than 2.5 nM.

With `Cc1cc(CC(=O)Nc2cnn(C(C)(C)C)c2)ccc1Oc1ccnc2ccc(S(=O)(=O)C3CCNC3)cc12` (single isomer, unassigned) [Compound 201, N-(1-(tert-butyl)-1H-pyrazol-4-yl)-2-(3-methyl-4-((6-(pyrrolidin-3-ylsulfonyl)quinolin-4-yl)oxy)phenyl)acetamide], the IC50 was less than 2.5 nM.

Consider `Cc1cc(CC(=O)Nc2cnn(C(C)(C)C)c2)ccc1Oc1ccnc2ccc(S(=O)(=O)C3CCNC3)cc12` (single isomer, unassigned) [Compound 202, N-(1-(tert-butyl)-1H-pyrazol-4-yl)-2-(3-methyl-4-((6-(pyrrolidin-3-ylsulfonyl)quinolin-4-yl)oxy)phenyl)acetamde], for which the IC50 was less than 2.5 nM.

Turning to `Cc1cc(CC(=O)Nc2cnn(C(C)(C)C)c2)ccc1Oc1ccnc2ccc(OCC(C)O)cc12` (single isomer, unassigned) [Compound 224, N-(1-(tert-butyl)-1H-pyrazol-4-yl)-2-(4-((6-(2-hydroxy-propoxy)quinolin-4-yl)oxy)-3-methylphenyl) acetamide], the IC50 is less than 2.5 nM.

Consider `Cc1cc(CC(=O)Nc2cnn(C(C)(C)C)c2)ccc1Oc1ccnc2ccc(OCC(C)O)cc12` (single isomer, unassigned) [Compound 225, N-(1-(tert-butyl)-1H-pyrazol-4-yl)-2-(4-((6-(2-hydroxy-propoxy)quinolin-4-yl)oxy)-3-methylphenyl) acetamide], for which the IC50 is less than 2.5 nM.

Consider `Cc1cc(CC(=O)Nc2cnn(C(C)(C)C)c2)ccc1Oc1ccnc2ccc(S(=O)(=O)CC3CCOC3)cc12` (single isomer, unassigned) [Compound 241, N-(1-(tert-butyl)-1H-pyrazol-4-yl)-2-(3-methyl-4-((6-(((tetrahydrofuran-3-yl)methyl)sulfonyl)quinolin-4-yl)oxy)phenyl)acetamide], for which the IC50 is less than 2.5 nM.

With `Cc1cc(CC(=O)Nc2cnn(C(C)(C)C)c2)ccc1Oc1ccnc2ccc(S(=O)(=O)CC3CCOC3)cc12` (single isomer, unassigned) [Compound 242, N-(1-(tert-butyl)-1H-pyrazol-4-yl)-2-(3-methyl-4-((6-(((tetrahydrofuran-3-yl)methyl)sulfonyl)quinolin-4-yl)oxy)phenyl)acetamide], the IC50 is less than 2.5 nM.

Take `Cc1c(Oc2ccnc3ccc(S(=O)(=O)C4CCOC4)cc23)ccc(CC(=O)Nc2cnn(C(C)(C)C)c2)c1F` (single isomer, unassigned) [Compound 250, N-(1-(tert-butyl)-1H-pyrazol-4-yl)-2-(2-fluoro-3-methyl-4-((6-((tetrahydrofuran-3-yl)sulfonyl)quinolin-4-yl)oxy)phenyl)acetamide]: the IC50 is less than 2.5 nM.

As for `Cc1c(Oc2ccnc3ccc(S(=O)(=O)C4CCOC4)cc23)ccc(CC(=O)Nc2cnn(C(C)(C)C)c2)c1F` (single isomer, unassigned) [Compound 251, N-(1-(tert-butyl)-1H-pyrazol-4-yl)-2-(2-fluoro-3-methyl-4-((6-((tetrahydrofuran-3-yl)sulfonyl)quinolin-4-yl)oxy)phenyl)acetamide], the IC50 was less than 2.5 nM.

Consider `Cc1cc(CC(=O)Nc2cnn(C(C)(C)C)c2)ccc1Oc1ccnc2ccc(S(=O)(=O)C3CC(N)C3)cc12` (single isomer, unassigned) [Compound 282, 2-(4-((6-((-3-aminocyclobutyl)sulfonyl)quinolin-4-yl)oxy)-3-methylphenyl)-N-(1-(tert-butyl)-1H-pyrazol-4-yl)acetamide], for which the 50% inhibitory concentration (IC50) is less than 2.5 nM.

Regarding `Cc1cc(CC(=O)Nc2cnn(C(C)(C)C)c2)ccc1Oc1ccnc2ccc(S(=O)(=O)C3CC(N)C3)cc12` (single isomer, unassigned) [Compound 283, 2-(4-((6-((-3-aminocyclobutyl)sulfonyl)quinolin-4-yl)oxy)-3-methylphenyl)-N-(1-(tert-butyl)-1H-pyrazol-4-yl)acetamide], the IC50 was less than 2.5 nM.

On to `Cc1c(Oc2ccnc3ccc(S(=O)(=O)C4CC(O)C4)cc23)ccc(CC(=O)Nc2cnn(C(C)(C)C)c2)c1F` (single isomer, unassigned) [Compound 285, N-(1-(tert-butyl)-1H-pyrazol-4-yl)-2-(2-fluoro-4-((6-((-3-hydroxycyclobutyl)sulfonyl)quinolin-4-yl)oxy)-3-methylphenyl)acetamide], for which the IC50 was less than 2.5 nM.

As for `Cc1c(Oc2ccnc3ccc(S(=O)(=O)C4CC(O)C4)cc23)ccc(CC(=O)Nc2cnn(C(C)(C)C)c2)c1F` (single isomer, unassigned) [Compound 286, N-(1-(tert-butyl)-1H-pyrazol-4-yl)-2-(2-fluoro-4-((6-((-3-hydroxycyclobutyl)sulfonyl)quinolin-4-yl)oxy)-3-methylphenyl)acetamide], the IC50 was less than 2.5 nM.

`Cc1c(Oc2ccnc3ccc(S(=O)(=O)C4CC(N)C4)cc23)ccc(CC(=O)Nc2cnn(C(C)(C)C)c2)c1F` (single isomer, unassigned) [Compound 287, 2-(4-((6-((-3-aminocyclobutyl)sulfonyl)quinolin-4-yl)oxy)-2-fluoro-3-methylphenyl)-N-(1-(tert-butyl)-1H-pyrazol-4-yl)acetamide]: the IC50 was less than 2.5 nM.

With `Cc1c(Oc2ccnc3ccc(S(=O)(=O)C4CC(N)C4)cc23)ccc(CC(=O)Nc2cnn(C(C)(C)C)c2)c1F` (single isomer, unassigned) [Compound 288, 2-(4-((6-((-3-aminocyclobutyl)sulfonyl)quinolin-4-yl)oxy)-2-fluoro-3-methylphenyl)-N-(1-(tert-butyl)-1H-pyrazol-4-yl)acetamide], the IC50 is less than 2.5 nM.

Regarding `Cc1cc(CC(=O)Nc2cnn(C(C)(C)C)c2)ccc1Oc1ccnc2ccc(N3C(=O)CCC3C)cc12` (single isomer, unassigned) [Compound 291, N-(1-(tert-butyl)-1H-pyrazol-4-yl)-2-(3-methyl-4-((6-(2-methyl-5-oxopyrrolidin-1-yl)quinolin-4-yl)oxy)phenyl) acetamide], the IC50 was less than 2.5 nM.

As to `Cc1cc(CC(=O)Nc2cnn(C(C)(C)C)c2)ccc1Oc1ccnc2ccc(N3C(=O)CCC3C)cc12` (single isomer, unassigned) [Compound 292, N-(1-(tert-butyl)-1H-pyrazol-4-yl)-2-(3-methyl-4-((6-(2-methyl-5-oxopyrrolidin-1-yl)quinolin-4-yl)oxy)phenyl) acetamide], the IC50 was less than 2.5 nM.

As to `Cc1c(Oc2ccnc3ccc(N4C(=O)CCC4C)cc23)ccc(CC(=O)Nc2cnn(C(C)(C)C)c2)c1F` (single isomer, unassigned) [Compound 296, N-(1-(tert-butyl)-1H-pyrazol-4-yl)-2-(2-fluoro-3-methyl-4-((6-(2-methyl-5-oxopyrrolidin-1-yl)quinolin-4-yl)oxy)phenyl) acetamide], the IC50 is less than 2.5 nM.

`Cc1c(Oc2ccnc3ccc(N4C(=O)CCC4C)cc23)ccc(CC(=O)Nc2cnn(C(C)(C)C)c2)c1F` (single isomer, unassigned) [Compound 297, N-(1-(tert-butyl)-1H-pyrazol-4-yl)-2-(2-fluoro-3-methyl-4-((6-(2-methyl-5-oxopyrrolidin-1-yl)quinolin-4-yl)oxy)phenyl) acetamide]: the IC50 was less than 2.5 nM.

(Values after patent publication US12624018B1, “Inhibitors of RIPK2 and medical uses thereof” (Odyssey Therapeutics, Inc., priority 2022, dated 2026).)
